Experimental data taken from paper PMC10650850, “Discovery, Structure–Activity Relationship and In Vitro Anticancer Activity of Small-Molecule Inhibitors of the Protein–Protein Interactions between AF9/ENL and AF4 or DOT1L” (Cancers, 2023).
“Also recorded” adds a separate entry of the source. Structures can show the parent of a compound that is named as a salt.

Experiments:
NB4 = assay: Antiproliferation assay (XTT), NB4; format: cell-based; settings: Homo sapiens, NB-4, 168 h, 7 days incubation, read-out: Antitumor activity EC50, NB4;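 also: EC50 values in Micromolar not Nanomolar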
Method: (§1) The antitumor activity of selected compounds was evaluated against the proliferation of a panel of MLL-r leukemia and other cancer cells. MV4;11 and Molm-13 leukemia cells contain MLL-AF4 and MLL-AF9 fusion oncogenes, respectively. NB4 and HL60 are AML cells without MLL translocation. Hela (cervical cancer) is a solid tumor cell line. […] The anti-proliferation activity of these compounds against other AML cells (i.e., NB4 and HL60) might be due to their inhibition of SEC-mediated gene expression (e.g., Myc), as observed in our previous studies.
(§2) Proliferation inhibition assays were performed using an XTT assay kit (Biotium, Fremont, CA, USA) following our previous methods. The antiproliferation EC50 values were determined using Prism 5 and the reported results were the mean values of at least three independent experiments. The incubation time for all compounds was 7 days.

HL60 = assay: Antiproliferation assay (XTT), HL60; format: cell-based; settings: Homo sapiens, HL-60, 168 h, 7 days incubation, read-out: Antitumor activity EC50, HL60;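 also: EC50 values in Micromolar not Nanomolar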
Method: as §1, §2

Hela = assay: Antiproliferation assay (XTT), Hela; format: cell-based; settings: 7 days incubation; for EC50: Homo sapiens, HeLa, 168 h, read-out: Antitumor activity EC50, Hela
Method: as §1, §2

AF9-DOT1L interaction [1] = molecular target: T1, AF9-DOT1L interaction (Homo sapiens, UniProt P42568); assay: AlphaLisa assay, AF9-DOT1L interaction; format: binding; settings: MBP-protein 5 nM, biotinylated peptide 40 nM, 3 independent experiments with standard deviation, read-out: IC50 (μM) against the AF9-DOT1L interaction
T1 construct: human AF9 AHD domain (475–568); made in house; host or cells: E. coli BL21(DE3)
T1 sequence (P42568 475-568): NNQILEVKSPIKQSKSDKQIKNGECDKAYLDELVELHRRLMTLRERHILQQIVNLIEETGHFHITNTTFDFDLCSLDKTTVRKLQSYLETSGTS
Text: An AlphaLisa assay we previously developed was used for compound screening for inhibitors of the AF9-DOT1L interaction. The PPI takes the DOT1L-peptide coated donor beads and AF9 AHD coated acceptor beads together. The donor beads are illuminated with a laser beam (680 nm) to generate singlet oxygen radicals, which activate the adjacent acceptor beads to produce luminescence at 615 nm. When a compound can disrupt such PPI and separate the donor and acceptor beads, the highly unstable radicals are rapidly quenched by water without generating luminescence.
(§3) The cDNA for the human AF9 AHD domain (475–568) and ENL AHD domain (489–559) was synthesized (by Genscript, Piscataway, NJ, USA) and inserted into the pMAL c5X expression plasmid. The DOT1L peptide (Biotin-AHX-[…]) and AF4 peptide (Biotin-AHX-[…]) for the Alpha assay were purchased from Genscript.
(§4) Alpha assays were developed in our previous publication, using a Perkin-Elmer AlphaLisa anti-MBP kit, which contains streptavidin donor beads and anti-MBP acceptor beads. Briefly, the assay was performed using a MBP-protein (5 nM), a biotinylated peptide (40 nM), and increasing concentrations of a compound in 25 µL buffer (PBS with 0.5% BSA, pH 7.5) in 384-well plates according to the manufacturer’s protocol and measured with a Tecan SPARK microplate reader. Data were imported into Prism (version 5.0), and IC50 values from 3 independent experiments with standard deviation were obtained by using a standard dose-response curve fitting.

MV4;11 = assay: Antiproliferation assay (XTT), MV4;11; format: cell-based; settings: Homo sapiens, MV4-11, 168 h, 7 days incubation, read-out: Antitumor activity EC50, MV4;11;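 also: EC50 values in Micromolar not Nanomolar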
Method: as §1, §2

Molm13 = assay: Antiproliferation assay (XTT), Molm-13; format: cell-based; settings: Homo sapiens, MOLM-13, 168 h, 7 days incubation, read-out: Antitumor activity EC50, Molm13;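 also: EC50 values in Micromolar not Nanomolar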
Method: as §1, §2

ENL-AF4 = molecular target: T2, ENL-AF4 (Homo sapiens, UniProt Q03111); assay: AlphaLisa assay, ENL-AF4 interaction; format: binding; settings: ENL AHD, AF4 peptide
T2 construct: ENL AHD domain (489–559); made in house; host or cells: E. coli BL21(DE3)
T2 sequence (Q03111 489-559): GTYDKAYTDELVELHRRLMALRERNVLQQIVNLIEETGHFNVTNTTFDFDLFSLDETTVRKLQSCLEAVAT
Method: (§5) Transcription cofactor AF4, which is the most frequent (~35%) fusion protein in MLL1-r leukemia, is another binding partner of AF9/ENL [35, 36, 37]. The AF9/ENL-AF4 interactions are essential for the formation of SEC, which causes aberrant gene expression in MLL-r leukemia and other AMLs. Using our previously developed AlphaLisa assays, selected compounds were tested for their ability to inhibit the PPIs between AF9 or ENL and AF4.
as §3, §4

AF9-AF4 = molecular target: T3, AF9-AF4 (Homo sapiens, UniProt P42568); assay: AlphaLisa assay, AF9-AF4 interaction; format: binding; settings: AF9 AHD, AF4 peptide
T3 construct: human AF9 AHD domain (475–568); made in house; host or cells: E. coli BL21(DE3)
T3 sequence (P42568 475-568): T1 sequence (P42568 475-568)
Method: as §5, §3, §4

[2] = test system: panel of MLL-r leukemia and other cancer cells; assay: Antiproliferation assay (XTT), panel of MLL-r leukemia and other cancer cells; format: cell-based; settings: 7 days; for Inhibition of tumor cell proliferation (in words): MV4;11, Molm-13, NB4, HL60 and Hela cells; for EC50: 168 h, MV4;11, Molm-13, NB4 and HL60 cells, read-out: Antitumor activity EC50, span over MLL-r leukemia and AML cells
Method: as §1, §2

HoxA9, Meis1 and Myc = assay: RT-qPCR of MLL target genes in Molm-13 cells; format: cell-based; settings: 1 and 5 µM, 4 days
Text: The major function of the SEC is to promote transcription elongation for its bound genes. Because of the high affinity of the PPIs between AF9/ENL and AF4, onco-MLL (e.g., MLL-AF4 or MLL-AF9/-ENL) recruits SEC to MLL target genes, facilitates their expression, and eventually causes leukemia initiation. Next, we investigated whether selected inhibitors of these PPIs can inhibit the expression of HoxA9, Meis1 and Myc, which are MLL target genes and their high expression is characteristic of MLL-r leukemia. In addition, high expression of Myc is also observed in a broad range of AMLs and other cancers and is considered a driving factor for oncogenesis. To this end, RNAs from the control and compound-treated Molm-13 cells (harboring MLL-AF9) were extracted and subjected to quantitative PCR. […] RNA extraction and RT-qPCR were performed following our previous method. 10^5 cells/mL were incubated with a compound for 4 days and the RNA was extracted using an RNeasy mini kit (#74104, Qiagen, Germantown, MD, USA). 100–1000 ng of total RNA was reverse transcribed using iScript™ Reverse Transcription Supermix (Bio-Rad, Hercules, CA, USA), using the manufacturer’s protocol. Quantitative real-time PCR was carried out using Fast SYBR Green Master Mix (Applied Biosystems, Waltham, MA, USA) according to the manufacturer’s instructions. Measurements were performed in triplicate using GAPDH as the reference gene. Real-time PCR was performed using the Biosystems Step One Plus detection system. The following sequences of primers were used: […]

AF9-DOT1L interaction [3] = molecular target: T1, AF9-DOT1L interaction; assay: Pull-down assay of AF9 AHD with DOT1L peptide-coated beads; format: binding
Text: A pull-down assay was used to confirm that the strong inhibitors could disrupt the AF9-DOT1L interaction. Streptavidin agarose beads coated with biotinylated DOT1L peptide were used to pull-down the protein AF9 AHD in the solution, followed by thorough washing, SDS-PAGE (sodium dodecyl sulfate-polyacrylamide gel electrophoresis) and Western blotting to visualize and quantitate the protein. […] This alternative, non-optical method confirmed that compounds 24 and 50 can inhibit the PPI between AF9 and DOT1L.
The pull-down assays were conducted following our previous method. Briefly, the biotinylated DOT1L peptide (0.25 mg/mL) was incubated with streptavidin agarose beads (20 μL) in PBS containing 0.1% Triton X-100 (400 µL) for 3h to yield, after washing, DOT1L-coated beads. MBP-tagged AF9 AHD (0.2 µM, 400 µL) was pre-incubated with a compound for 1 h before adding to the beads. After 6 h incubation at 4 °C, the beads were collected, thoroughly washed, and subjected to SDS-PAGE and analyzed by Western blot using an MBP antibody (#2396, Cell signaling, Danvers, MA, USA).

Structure (SMILES) | EC50 (NB4) | EC50 (HL60) | EC50 (Hela) | IC50 (AF9-DOT1L interaction [1]) | EC50 (MV4;11) | EC50 (Molm13) | IC50 (ENL-AF4) | IC50 (AF9-AF4) | IC50 ENL-AF4 (ENL-AF4) | IC50 AF9-AF4 (AF9-AF4) | Inhibition of tumor cell proliferation (in words) [2] | Expression of MLL target genes HoxA9, Meis1 and Myc (in words) (HoxA9, Meis1 and Myc) | remaining activity at 10 µM (AF9-DOT1L interaction [3]; Western blot, compound 10 μM, read-out: AF9 AHD % Control) | remaining activity at 50 µM (AF9-DOT1L interaction [3]; Western blot, compound 50 μM, read-out: AF9 AHD % Control) | Effect on AF9 AHD bound to DOT1L peptide-coated beads (in words) (AF9-DOT1L interaction [3]; up to 50 µM) | EC50 [2] | Antitumor activity EC50, Hela (Hela)
O=C(NCC1CCNCC1)c1c[nH]c2cc(-c3ccc(N4CCCCC4)cc3)ccc12 [Compound 2, 6-(4-(Piperidin-1-yl)phenyl)-N-(piperidin-4-ylmethyl)-1H-indole-3-carboxamide hydrochloride] | 32 ± 2 µM | 50 µM | > 50 µM | 4.5 ± 0.01 µM | 33 ± 2.8 µM | 29 ± 2.5 µM | – | – | – | – | – | – | – | – | – | – | –
O=C(NCC1CCNCC1)c1c[nH]c2cc(-c3ccc(N4CCCC4)cc3)ccc12 [Compound 12, 6-(4-(Pyrrolidin-1-yl)phenyl)-N-(piperidin-4-ylmethyl)-1H-indole-3-carboxamide hydrochloride] | 50 µM | 50 µM | > 50 µM | 2.9 ± 0.1 µM | 26 ± 1.8 µM | 50 µM | – | – | – | – | – | – | – | – | – | – | –
O=C(NCC1CCNCC1)c1cc2cc(-c3ccc(N4CCCCC4)cc3)ccc2[nH]1 [Compound 15] | > 50 µM | 50 µM | > 50 µM | 3.6 ± 0.3 µM | 22 ± 2 µM | 10 ± 1.6 µM | – | – | – | – | – | – | – | – | – | – | –
O=C(NCC1CCNCC1)c1cc2cc(-c3ccc(N4CCCC4)cc3)ccc2[nH]1 [Compound 16] | – | – | – | 2.7 ± 0.2 µM | – | – | 1900 ± 300 nM | 1900 ± 100 nM | – | – | – | – | – | – | – | – | –
O=C(NCC1CCNCC1)c1cc2cc(-c3cn[nH]c3)ccc2[nH]1 [Compound 22] | > 50 µM | > 50 µM | > 50 µM | > 30 µM | > 50 µM | > 50 µM | > 50000 nM | > 50000 nM | did not inhibit | did not inhibit | None of these three compounds inhibited tumor cell proliferation | – | – | – | – | – | –
Cl.O=C(NCC1CCNCC1)c1cc2ccc(-c3ccc(N4CCCCC4)cc3)cc2s1 [Compound 24, 6-(4-(Piperidin-1-yl)phenyl)-N-(piperidin-4-ylmethyl)-benzo[b]thiophene-2-carboxamide hydrochloride] | 5.3 ± 1.1 µM | 10 ± 1.8 µM | 50 µM | 1.6 ± 0.2 µM | 9.6 ± 1.2 µM | 4.7 ± 0.3 µM | 2600 ± 300 nM | 2100 ± 300 nM | – | – | – | inhibited expression; also recorded: able to reduce the expression | 62% | 4% | significantly reduced the amounts of AF9 AHD; also recorded: dose-dependently reduce AF9 AHD | – | –
O=C(NCC1CCNCC1)c1cc2ccc(-c3ccc(N4CCCC4)cc3)cc2s1 [Compound 25, 6-(4-(Pyrrolindin-1-yl)phenyl)-N-(piperidin-4-ylmethyl)-benzo[b]thiophene-2-carboxamide hydrochloride] | 10 ± 0.5 µM | 26 ± 2.6 µM | 50 µM | 5.3 ± 0.1 µM | 8.7 ± 0.9 µM | 9.4 ± 0.8 µM | 7900 ± 1500 nM | 7700 ± 900 nM | – | – | – | – | – | – | – | 8.7 to 26 µM | –
Cl.O=C(NCC1CCNCC1)c1coc2cc(-c3ccc(N4CCCCC4)cc3)ccc12 [Compound 57, 6-(4-(Piperidin-1-yl)phenyl)-N-(piperidin-4-ylmethyl)-benzofuran-3-carboxamide hydrochloride] | 11 ± 0.4 µM | 9.7 ± 1.2 µM | 50 µM | 7.2 ± 0.4 µM | 21 ± 1.2 µM | 13 ± 1.7 µM | – | – | – | – | – | – | – | – | – | 9.7 to 21 µM | did not affect the growth of Hela cells
Cl.NCc1ccc(-c2ccc3cc(C(=O)NCC4CCNCC4)oc3c2)cc1 [Compound 72, 6-(4-(Aminomethyl)phenyl)-N-(piperidin-4-ylmethyl)-benzofuran-2-carboxamide hydrochloride] | > 50 µM | > 50 µM | > 50 µM | > 30 µM | ~50 µM | > 50 µM | – | – | – | – | None of these three compounds inhibited tumor cell proliferation | – | – | – | – | – | –
